Assay [1] addresses Melanin-concentrating hormone receptor 1 (Homo sapiens, UniProt Q99705). In words: Late-stage fluorescence-based counterscreen for antagonists of the G-protein coupled receptor 7 (GPR7): cell-based dose response assay to identify antagonists of the melanin-concentrating hormone receptor 1 (MCHR1). [Related pubchem assays (depositor defined):AID1861, AID1880, AID1952, AID2148, AID2251, AID2257, AID485339]. Format: functional.

Assay [2] has as its target Metabotropic glutamate receptor 4 (Homo sapiens, UniProt Q14833). In words: Modulation of the Metabotropic Glutamate Receptor mGluR4: Calcium Assay. [Related pubchem assays: 2180, 2199, 2193, 2179, 2182, 2183, 2191, 2181, 2190, 2188, 2185, 2197 ]. Format: functional.
In assay [3] the target is T1, Corticotropin-releasing factor receptor 2/Corticotropin-releasing factor-binding protein (Homo sapiens, UniProt P24387+Q13324).
T1 sequence (Q13324 whole entry): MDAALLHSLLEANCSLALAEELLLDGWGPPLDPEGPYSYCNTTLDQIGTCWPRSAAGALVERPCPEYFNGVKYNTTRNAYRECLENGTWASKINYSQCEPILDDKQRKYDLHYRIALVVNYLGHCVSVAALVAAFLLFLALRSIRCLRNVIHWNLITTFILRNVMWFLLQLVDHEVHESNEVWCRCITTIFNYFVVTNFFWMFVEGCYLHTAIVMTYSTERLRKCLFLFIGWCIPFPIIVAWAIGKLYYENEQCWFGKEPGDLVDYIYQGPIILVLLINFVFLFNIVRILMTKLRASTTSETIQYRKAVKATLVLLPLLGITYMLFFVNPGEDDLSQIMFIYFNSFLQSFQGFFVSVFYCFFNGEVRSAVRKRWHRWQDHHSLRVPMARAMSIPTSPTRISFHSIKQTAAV
T1 sequence (P24387 whole entry): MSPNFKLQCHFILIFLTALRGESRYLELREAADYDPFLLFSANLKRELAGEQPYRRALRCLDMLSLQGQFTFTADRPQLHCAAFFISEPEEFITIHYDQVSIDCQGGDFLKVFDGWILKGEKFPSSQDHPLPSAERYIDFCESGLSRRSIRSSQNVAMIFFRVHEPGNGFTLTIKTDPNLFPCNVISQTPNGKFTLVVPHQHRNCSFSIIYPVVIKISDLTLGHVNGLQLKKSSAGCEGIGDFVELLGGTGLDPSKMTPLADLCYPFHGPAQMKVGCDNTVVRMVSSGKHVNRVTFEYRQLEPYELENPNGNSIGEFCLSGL
As to the kind of experiment: activators of CRF receptor 2 with binding protein – uHTS hits, confirmation (AID 602473). The settings on record: read-out: EC50_Mean. Format: functional.

For assay [4], the target named is T2, Eukaryotic translation initiation factor 2-alpha kinase 3 (Homo sapiens, UniProt Q9NZJ5). As to the kind of experiment: Dose response cell-based high-throughput screening assay to measure PERK inhibition. [Related pubchem assays: 1416 ]. Format: functional.
T2 sequence (Q9NZJ5 whole entry): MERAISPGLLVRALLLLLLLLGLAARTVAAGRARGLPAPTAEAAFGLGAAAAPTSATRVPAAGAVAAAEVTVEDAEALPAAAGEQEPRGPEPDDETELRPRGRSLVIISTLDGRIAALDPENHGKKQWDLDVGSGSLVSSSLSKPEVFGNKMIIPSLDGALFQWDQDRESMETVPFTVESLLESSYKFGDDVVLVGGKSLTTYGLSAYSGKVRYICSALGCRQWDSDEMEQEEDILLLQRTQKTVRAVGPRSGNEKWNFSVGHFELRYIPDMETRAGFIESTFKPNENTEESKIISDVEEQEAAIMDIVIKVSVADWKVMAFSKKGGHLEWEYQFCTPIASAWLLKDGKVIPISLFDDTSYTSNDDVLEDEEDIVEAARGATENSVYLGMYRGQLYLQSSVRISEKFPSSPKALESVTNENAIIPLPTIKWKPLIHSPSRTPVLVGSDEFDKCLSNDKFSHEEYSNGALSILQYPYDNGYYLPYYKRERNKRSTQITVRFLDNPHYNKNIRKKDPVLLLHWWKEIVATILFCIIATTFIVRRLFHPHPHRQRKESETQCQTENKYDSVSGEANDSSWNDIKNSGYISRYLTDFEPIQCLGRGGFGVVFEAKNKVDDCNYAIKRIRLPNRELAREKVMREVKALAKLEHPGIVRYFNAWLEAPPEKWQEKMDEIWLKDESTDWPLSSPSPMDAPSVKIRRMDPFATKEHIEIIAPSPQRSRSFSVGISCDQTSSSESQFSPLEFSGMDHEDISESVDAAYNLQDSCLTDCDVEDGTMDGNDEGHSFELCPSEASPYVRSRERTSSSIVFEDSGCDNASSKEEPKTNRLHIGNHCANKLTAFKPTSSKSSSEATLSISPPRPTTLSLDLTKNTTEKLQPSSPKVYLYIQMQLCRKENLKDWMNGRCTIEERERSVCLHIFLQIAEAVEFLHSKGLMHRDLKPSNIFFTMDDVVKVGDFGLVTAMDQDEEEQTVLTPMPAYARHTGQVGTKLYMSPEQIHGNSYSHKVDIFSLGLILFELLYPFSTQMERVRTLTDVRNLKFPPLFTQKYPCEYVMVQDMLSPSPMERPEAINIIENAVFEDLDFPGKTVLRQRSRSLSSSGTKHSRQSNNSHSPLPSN
Assay [5] deals with T1, Corticotropin-releasing factor receptor 2/Corticotropin-releasing factor-binding protein. As to the kind of experiment: Dose Response confirmation of uHTS hits for small molecule antagonists of the CRF-binding protein and CRF-R2 receptor complex. The settings on record: read-out: IC50_Mean. Format: functional.
The target of assay [6] is T2, Eukaryotic translation initiation factor 2-alpha kinase 3. In words: Counterscreen assay for PERK inhibitors: Dose response cell-based high throughput screening assay to measure inhibition of PERK at 6 hours. [Related pubchem assays: 1522, 1416 ]. Format: functional. In general terms: A counterscreen serves to expose hits that act by an unwanted route or on another target.

The test system of another assay is INS1. As to the kind of experiment: INS-1E survival protection against cytokine death – cell-based, luminescence, retest, dose response (AID 449756).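 Note: cell death triggered by IL-1 beta plus TNF-alpha plus IFN-gamma mixture; protective hits raise ATP signal compared with cytokine alone wells.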 Format: functional. As to conditions: Rattus norvegicus.
A short description of assay [7]: Luminescence-based counterscreen assay for KLF5 inhibitors: dose response cell-based high throughput screening assay to identify cytotoxic compounds using the IEC-6 intestinal epithelial cell line. [Related pubchem assays: 1700 (Primary screen.), 1834 (Confirmation screen.), 1858 (Summary AID.), 1905 (Counterscreen.)]. Format: functional.
Assay [8] in a line: cells. Format: functional, cell-based.
Assay [9] in a line: cells. Format: functional, cell-based. This is another data set of the same source.
The nature of assay [10]: antiviral protection against BTV-induced cell death – arbovirus, BSR cells, confirmation (AID 1250).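 Note: protection from viral cytopathic effect measured as cell viability by ATP luminescence.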 Format: functional.
Another assay concerns the target T3, Aminopeptidase N (Plasmodium falciparum FcB1/Columbia, UniProt O96935).
T3 sequence (O96935 whole entry): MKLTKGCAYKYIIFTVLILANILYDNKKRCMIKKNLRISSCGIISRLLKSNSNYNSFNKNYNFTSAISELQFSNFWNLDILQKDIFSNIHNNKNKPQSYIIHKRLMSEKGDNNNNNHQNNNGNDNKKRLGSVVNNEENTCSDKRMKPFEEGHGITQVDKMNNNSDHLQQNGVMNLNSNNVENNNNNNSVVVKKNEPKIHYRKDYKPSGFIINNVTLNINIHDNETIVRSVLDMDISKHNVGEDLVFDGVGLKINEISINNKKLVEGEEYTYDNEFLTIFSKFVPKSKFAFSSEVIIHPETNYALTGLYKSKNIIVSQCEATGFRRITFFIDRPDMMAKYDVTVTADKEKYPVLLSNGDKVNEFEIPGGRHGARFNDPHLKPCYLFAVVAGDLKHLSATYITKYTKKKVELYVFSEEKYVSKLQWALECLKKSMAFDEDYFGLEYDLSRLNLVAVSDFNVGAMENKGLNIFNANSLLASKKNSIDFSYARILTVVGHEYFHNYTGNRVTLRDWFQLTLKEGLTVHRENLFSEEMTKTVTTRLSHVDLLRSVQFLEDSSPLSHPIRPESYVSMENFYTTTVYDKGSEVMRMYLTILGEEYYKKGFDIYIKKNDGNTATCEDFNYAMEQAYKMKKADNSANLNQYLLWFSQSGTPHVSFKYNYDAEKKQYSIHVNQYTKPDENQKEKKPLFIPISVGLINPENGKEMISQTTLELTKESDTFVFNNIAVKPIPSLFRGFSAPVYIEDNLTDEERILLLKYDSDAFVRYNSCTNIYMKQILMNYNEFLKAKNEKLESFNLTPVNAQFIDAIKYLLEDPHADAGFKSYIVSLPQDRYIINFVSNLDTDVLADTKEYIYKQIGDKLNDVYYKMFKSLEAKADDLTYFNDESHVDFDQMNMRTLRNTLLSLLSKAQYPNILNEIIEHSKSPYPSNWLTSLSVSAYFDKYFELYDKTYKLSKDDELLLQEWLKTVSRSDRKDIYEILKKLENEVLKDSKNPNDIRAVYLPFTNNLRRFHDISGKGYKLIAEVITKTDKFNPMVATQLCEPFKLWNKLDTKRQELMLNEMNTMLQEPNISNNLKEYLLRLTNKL
As to the kind of experiment: malaria alanyl aminopeptidase activity blockers – biochemical, fluorogenic H-Leu-NHMec substrate, 1536-well (AID 1445). Set-up: species or system Plasmodium falciparum 3D7, 3D7.

In the next assay the target is Wee1-like protein kinase (Homo sapiens, UniProt P30291). In words: Dose Response Cell-based Assay for Inhibitors of Wee1 Degradation. [Related pubchem assays: 1410, 1321 ]. Format: functional.
Wee1-like protein kinase, sequence (P30291 whole entry): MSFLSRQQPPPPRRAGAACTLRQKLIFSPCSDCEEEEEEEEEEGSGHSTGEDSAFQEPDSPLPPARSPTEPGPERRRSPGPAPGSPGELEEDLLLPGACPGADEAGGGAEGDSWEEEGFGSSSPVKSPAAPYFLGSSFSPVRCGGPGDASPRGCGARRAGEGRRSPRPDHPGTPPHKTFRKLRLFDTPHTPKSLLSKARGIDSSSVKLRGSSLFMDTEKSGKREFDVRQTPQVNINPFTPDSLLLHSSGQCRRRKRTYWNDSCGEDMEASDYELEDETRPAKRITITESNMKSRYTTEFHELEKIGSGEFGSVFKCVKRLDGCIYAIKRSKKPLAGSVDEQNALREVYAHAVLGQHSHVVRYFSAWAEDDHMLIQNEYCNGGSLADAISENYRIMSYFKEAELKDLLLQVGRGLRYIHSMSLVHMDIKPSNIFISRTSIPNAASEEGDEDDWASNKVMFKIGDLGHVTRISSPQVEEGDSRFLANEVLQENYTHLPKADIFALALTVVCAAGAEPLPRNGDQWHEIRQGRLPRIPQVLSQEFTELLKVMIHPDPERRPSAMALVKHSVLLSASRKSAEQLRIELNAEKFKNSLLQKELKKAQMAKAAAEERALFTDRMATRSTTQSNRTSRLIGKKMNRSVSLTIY
For assay [11], the target named is G2/mitotic-specific cyclin-B1 (Homo sapiens, UniProt P14635). As to the kind of experiment: Counterscreen assay for inhibitors of Wee1 degradation: dose response cell-based assay to identify inhibitors of cyclin B degradation. [Related pubchem assays: 1410, 1321 ]. Format: functional.
G2/mitotic-specific cyclin-B1, sequence (P14635 whole entry): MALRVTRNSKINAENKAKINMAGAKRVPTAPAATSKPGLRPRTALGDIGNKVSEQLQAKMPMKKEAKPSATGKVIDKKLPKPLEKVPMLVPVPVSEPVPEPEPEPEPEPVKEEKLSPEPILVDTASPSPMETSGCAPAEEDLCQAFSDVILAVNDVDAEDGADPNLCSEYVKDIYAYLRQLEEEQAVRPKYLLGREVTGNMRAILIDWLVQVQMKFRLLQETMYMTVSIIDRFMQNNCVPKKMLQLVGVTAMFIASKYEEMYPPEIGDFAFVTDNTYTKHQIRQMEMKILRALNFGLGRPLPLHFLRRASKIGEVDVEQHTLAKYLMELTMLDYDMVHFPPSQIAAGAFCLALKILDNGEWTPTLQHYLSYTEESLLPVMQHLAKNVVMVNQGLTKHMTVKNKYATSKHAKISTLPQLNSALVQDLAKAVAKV
Assay [12] can be described thus: viability loss in Vero cells – cytotoxicity control for Vif-APOBEC3G degradation inhibitor project, dose response (AID 1117358). The settings on record: Vero. Format: functional.

The source made the active and inactive calls.

Melanin-concentrating hormone receptor 1, sequence (Q99705 whole entry): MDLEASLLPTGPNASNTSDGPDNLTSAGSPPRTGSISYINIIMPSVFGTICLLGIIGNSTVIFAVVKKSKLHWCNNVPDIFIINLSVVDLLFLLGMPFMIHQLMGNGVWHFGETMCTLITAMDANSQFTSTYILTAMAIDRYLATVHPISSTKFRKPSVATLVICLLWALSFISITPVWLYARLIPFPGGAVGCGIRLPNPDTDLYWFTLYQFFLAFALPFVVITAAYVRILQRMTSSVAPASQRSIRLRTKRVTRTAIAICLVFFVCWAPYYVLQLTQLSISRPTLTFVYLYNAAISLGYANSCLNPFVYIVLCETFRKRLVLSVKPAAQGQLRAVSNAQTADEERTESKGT
Metabotropic glutamate receptor 4, sequence (Q14833 whole entry): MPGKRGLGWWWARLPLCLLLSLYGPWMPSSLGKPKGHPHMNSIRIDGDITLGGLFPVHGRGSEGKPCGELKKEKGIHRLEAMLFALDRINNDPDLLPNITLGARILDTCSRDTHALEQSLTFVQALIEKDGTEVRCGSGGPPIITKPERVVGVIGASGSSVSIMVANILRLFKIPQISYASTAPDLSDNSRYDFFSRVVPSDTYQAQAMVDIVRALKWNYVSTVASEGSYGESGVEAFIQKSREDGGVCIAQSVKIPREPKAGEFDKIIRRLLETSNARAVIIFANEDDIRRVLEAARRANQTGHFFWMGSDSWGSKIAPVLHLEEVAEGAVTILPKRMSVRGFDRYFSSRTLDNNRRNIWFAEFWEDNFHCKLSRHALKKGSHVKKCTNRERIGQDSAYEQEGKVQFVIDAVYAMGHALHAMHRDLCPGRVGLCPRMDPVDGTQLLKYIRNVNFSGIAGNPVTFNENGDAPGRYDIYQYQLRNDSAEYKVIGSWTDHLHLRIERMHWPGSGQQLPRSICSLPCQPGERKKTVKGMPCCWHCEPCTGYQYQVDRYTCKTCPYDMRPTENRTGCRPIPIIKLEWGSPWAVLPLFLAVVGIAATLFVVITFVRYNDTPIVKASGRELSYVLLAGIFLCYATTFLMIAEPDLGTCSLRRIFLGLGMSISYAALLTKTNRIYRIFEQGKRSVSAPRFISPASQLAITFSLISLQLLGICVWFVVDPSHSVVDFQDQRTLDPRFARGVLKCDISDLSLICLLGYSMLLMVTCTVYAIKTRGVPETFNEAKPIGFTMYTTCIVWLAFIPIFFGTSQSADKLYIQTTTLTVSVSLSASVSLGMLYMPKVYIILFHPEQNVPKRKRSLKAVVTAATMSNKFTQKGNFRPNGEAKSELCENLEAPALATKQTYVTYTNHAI

In the case of `CCOC(=O)c1ccc(-n2ncc(Cl)c(Oc3ccc(OC)cc3)c2=O)cc1`, in assay [1], the IC50 was 4 µM (active).

For `COc1nc(NC(=O)c2ccccn2)ccc1Cl`, the EC50 in assay [2] was 6.4 µM (active).

With `C=CCN(c1ccccc1)S(=O)(=O)c1cccc(C(=O)O)c1`, the EC50 in assay [3] is > 53 µM (inactive); in [4], > 55.7 µM (not active); in [6], > 55.7 µM (not active). Further, the IC50 in [5] is > 47.1 µM (inactive).

For the molecule `O=C(N/N=C/c1cc(Br)ccc1OC(=O)c1ccc(Br)cc1)c1ccncc1`, the half-maximal activity concentration (AC50) (in general, the concentration at which the activity in the assay is half-maximal) with INS1 was 2.29 µM (active). The IC50 in [7] was 5.99 µM (active). Moreover, the results for the EC50 in the assay “cells [8]” and in the assay “cells [9]” were 20 µM (active) and 121 µM (active), respectively.

`CS(=O)(=O)C1=NSC2=NC(=O)/C(=C\c3ccc(-c4ccccc4)o3)C(=N)N21`: the figures for the IC50 (in assay [10]; at Aminopeptidase N) were 36 µM (active) and 71.1 µM (active), respectively.

Consider `COc1ccc(/C=N/NC(=O)c2ccc3ccccc3c2)cc1OS(=O)(=O)c1ccc(NC(C)=O)cc1`, for which the EC50 (at Wee1-like protein kinase; in [11]) was > 49.7 µM (not active) throughout. Also, the CC50 (commonly the concentration that lowers cell viability or growth by half) in assay [12] is > 40 µM (active).
